For this assay, the system named is MPXV strain hMPXV/USA/MA001/2022 (Lineage B.1, Clade IIb). The assay is classed as cell-based, Mpox virus (MPXV).
On to `COc1cc(Nc2c(C#N)cnc3cc(OCCCN4CCN(C)CC4)c(OC)cc23)c(Cl)cc1Cl` [LOPAC-Bosutinib, Bosutinib], for which the “Duplicate of Duplicate of Hits: No CPE” value is given as 1.

In the case of ZX-29 [MC-ZX-29], the “Duplicate of Duplicate of Hits: No CPE” value is listed as 1.

With `CCN(CC)CCNC(=O)c1c(C)[nH]c(/C=C2\C(=O)Nc3ccc(Cl)cc32)c1C` [MC-SU11652, SU11652], the “Duplicate of Duplicate of Hits: No CPE” value was found to be 1.

`C=CC(=O)Nc1cc(Nc2nccc(-c3c4n(c5ccccc35)CCCC4)n2)c(OC)cc1N(C)CCN(C)C` [MC-Oritinib, Oritinib]: the “Duplicate of Duplicate of Hits: No CPE” value is 1.

On to `CCOc1cc2ncc(C#N)c(Nc3ccc(OCc4ccccn4)c(Cl)c3)c2cc1NC(=O)/C=C/CN(C)C.O=C(O)/C=C\C(=O)O` [MC-Neratinib (maleate), Neratinib (maleate)], for which the “Duplicate of Duplicate of Hits: No CPE” value is 1.

In the case of `C=CC(=O)Nc1cc2c(Nc3ccc(F)c(Cl)c3)ncnc2cc1OC` [MC-PF-6274484, PF-6274484], the “Duplicate of Duplicate of Hits: No CPE” value is 1.

Turning to `COc1ccc(N(C(=O)Oc2cc(C(=O)Nc3cccc(C(F)(F)F)c3)ccc2C)c2ccnc(Nc3ccc(N4CCN(C)CC4)cc3)n2)c(OC)c1` [MC-WH-4-025, WH-4-025], the “Duplicate of Duplicate of Hits: No CPE” value was 1.

Turning to `CNC(=O)c1ccccc1Nc1cc(Nc2ccc(N3CCN(CC(=O)N[C@H](C(=O)N4C[C@H](O)C[C@H]4C(=O)N[C@@H](C)c4ccc(-c5scnc5C)cc4)C(C)(C)C)CC3)cc2OC)ncc1C(F)(F)F` [MC-GSK215, GSK215], the “Duplicate of Duplicate of Hits: No CPE” value turned out to be 1.

For the molecule `C=CC(=O)Nc1ccc2ncnc(Nc3cccc(Br)c3)c2c1` [NKIL-PD168393, PD168393], the “Duplicate of Duplicate of Hits: No CPE” value turned out to be 1.

As to `C=CC(=O)Nc1cc2c(Nc3ccc(F)c(Cl)c3)ncnc2cc1OCCCN1CCOCC1` [MC-Canertinib, Canertinib], the “Duplicate of Duplicate of Hits: No CPE” value was 1.

On to `CCOc1cc2ncc(C#N)c(Nc3ccc(OCc4ccccn4)c(Cl)c3)c2cc1NC(=O)/C=C/CN(C)C` [MC-Neratinib, Neratinib], for which the “Duplicate of Duplicate of Hits: No CPE” value came out at 1.

`COc1cc2c(Nc3ccc(Cl)c(Cl)c3F)ncnc2cc1OC[C@@H]1C[C@@H]2CN(C)C[C@@H]2C1` [MC-Tesevatinib, Tesevatinib]: the “Duplicate of Duplicate of Hits: No CPE” value is 1.

Turning to `C=CC(=O)Nc1cc(Nc2nccc(-c3cn(C4CC4)c4ccccc34)n2)c(OC)cc1N(C)CCN(C)C.CS(=O)(=O)O` [MC-Almonertinib (mesylate), Almonertinib (mesylate)], the “Duplicate of Duplicate of Hits: No CPE” value was determined as 1.

As to `C=CCn1cc(-c2ccc(NC(=O)Nc3cc(C(C)(C)C)on3)cc2)c2c(N)ncnc21` [MC-FLT3-IN-4, FLT3-IN-4], the “Duplicate of Duplicate of Hits: No CPE” value worked out at 1.

In the case of `COc1cc(F)c(F)c(Nc2ccc(I)cc2F)c1NS(=O)(=O)C1(C[C@H](O)CO)CC1` [NKIL-Refametinib (RDEA119, Bay 86-9766), Refametinib], the “Duplicate of Duplicate of Hits: No CPE” value is recorded as 1.

Consider `O=C1Nc2ccc3ncsc3c2/C1=C/c1cnc[nH]1` [MC-PKR-IN-C16, PKR-IN-C16], for which the “Duplicate of Duplicate of Hits: No CPE” value amounted to 1.

With `C=CC(=O)N[C@@H]1CN(c2nc(Nc3cn(C)nc3OC)c3ncn(C)c3n2)C[C@H]1F` [MC-Mavelertinib, Mavelertinib], the “Duplicate of Duplicate of Hits: No CPE” value worked out at 1.

Take `CC#CC(=O)Nc1ccc2ncnc(Nc3cccc(Br)c3)c2c1` [MC-CL-387785, CL-387785]: the “Duplicate of Duplicate of Hits: No CPE” value was found to be 1.

As for `C#Cc1cccc(Nc2ncnc3cc(OC)c(OCCCN4CCOCC4)cc23)c1` [MC-NRC-2694, NRC-2694], the “Duplicate of Duplicate of Hits: No CPE” value is reported as 1.

`C=CC(=O)Nc1cccc(Oc2nc(Nc3ccc(N4CCN(C)CC4)cc3OC)ncc2Cl)c1` [NKIL-WZ4002, WZ4002]: the “Duplicate of Duplicate of Hits: No CPE” value worked out at 1.

With `C=CC(=O)Nc1cc(Nc2nccc(-c3cn(C)c4ccccc34)n2)c(OC)cc1N(C)CCNC.CS(=O)(=O)O.CS(=O)(=O)O.CS(=O)(=O)O` [MC-AZ7550 Mesylate, AZ7550 Mesylate], the “Duplicate of Duplicate of Hits: No CPE” value is listed as 1.

As for `C#Cc1cccc(Nc2ncnc3cc(OC)c(NC(=O)N4C[C@H]5CCN(C)[C@H]5C4)cc23)c1` [MC-Theliatinib, Theliatinib], the “Duplicate of Duplicate of Hits: No CPE” value is reported as 1.

As for `COc1cc2ncnc(Nc3cccc(Cl)c3)c2cc1OC` [LOPAC-Tyrphostin AG 1478, Tyrphostin AG 1478], the “Duplicate of Duplicate of Hits: No CPE” value came to 1.

`COc1cc2ncnc(Nc3ccc(F)c(Cl)c3)c2cc1OCCN1CC2(CC2)C2(C1)OCCO2` [MC-Simotinib, Simotinib]: the “Duplicate of Duplicate of Hits: No CPE” value was 1.

`CNc1ncc2cc(-c3cc(NC(=O)NCCC(C)(C)C)c(F)cc3C)c(C)nc2n1` [MC-LY3009120, LY3009120]: the “Duplicate of Duplicate of Hits: No CPE” value amounted to 1.

On to JNK-IN-7 [MC-JNK-IN-7], for which the “Duplicate of Duplicate of Hits: No CPE” value was 1.

`C=CC(=O)N1CCC[C@@H](n2nc(-c3ccc(Oc4ccccc4)cc3)c(C(N)=O)c2N)C1` [MC-Btk inhibitor 2, Btk inhibitor 2]: the “Duplicate of Duplicate of Hits: No CPE” value is 1.

Consider `C=CC(=O)N1C[C@H](COc2nc(Nc3cnn(C)c3)nc3[nH]cc(Cl)c23)[C@@H](OC)C1` [MC-PF-06459988, PF-06459988], for which the “Duplicate of Duplicate of Hits: No CPE” value is given as 1.

For the molecule `O=C(NC[C@H](O)CO)c1ccncc1Nc1ccc(I)cc1F` [NKIL-Pimasertib (AS-703026), Pimasertib], the “Duplicate of Duplicate of Hits: No CPE” value amounted to 1.

As to `CN(C)C/C=C/C(=O)Nc1cc2c(Nc3ccc(F)c(Cl)c3)ncnc2cc1O[C@H]1CCOC1` [NKIL-Afatinib (BIBW2992), Afatinib], the “Duplicate of Duplicate of Hits: No CPE” value was 1.

Take `COc1cc2ncnc(Nc3ccc(F)c(Cl)c3)c2cc1OCCCN1C[C@@H]2OCCO[C@@H]2C1.CS(=O)(=O)O.CS(=O)(=O)O.O` [MC-Larotinib (mesylate hydrate), Larotinib (mesylate hydrate)]: the “Duplicate of Duplicate of Hits: No CPE” value is reported as 1.

As for `COc1cc2ncnc(Nc3cccc(I)c3)c2cc1OC` [MC-AG1557, AG1557], the “Duplicate of Duplicate of Hits: No CPE” value was 1.

Take `Cc1cccc([C@@H](CO)NC(=O)[C@@H](C)N2Cc3ccc(-c4nc(NC5CCOCC5)ncc4Cl)cc3C2=O)c1` [MC-ERK1/2 inhibitor 1, ERK1/2 inhibitor 1]: the “Duplicate of Duplicate of Hits: No CPE” value amounted to 1.

On to `O=C(c1ccc(F)c(F)c1Nc1ccc(I)cc1F)N1CC(O)([C@@H]2CCCCN2)C1` [NKIL-Cobimetinib (GDC-0973, RG7420), Cobimetinib], for which the “Duplicate of Duplicate of Hits: No CPE” value was found to be 1.

With `CNC(=O)CN1CCC(Oc2cc3c(Nc4cccc(Cl)c4F)ncnc3cc2OC)CC1` [NKIL-AZD8931 (Sapitinib), Sapitinib], the “Duplicate of Duplicate of Hits: No CPE” value was determined as 1.

With `O=C(Nc1ccc2[nH]nc(-c3ccncc3)c2c1)[C@@H]1CCN(CC(=O)N2CCN(c3ccc(-c4ncccn4)cc3)CC2)C1` [MC-SCH772984, SCH772984], the “Duplicate of Duplicate of Hits: No CPE” value was determined as 1.

`C=CC(=O)Nc1cccc(Nc2nc(Nc3ccc(NC4CN(CCF)C4)cc3OC)ncc2C(F)(F)F)c1` [NKIL-CNX-2006, CNX-2006]: the “Duplicate of Duplicate of Hits: No CPE” value is 1.

For `C=CC(=O)Nc1cccc(Oc2nc(Nc3ccc(N4CCN(C)CC4)c(F)c3)nc3[nH]ccc23)c1` [MC-Avitinib, Avitinib], the “Duplicate of Duplicate of Hits: No CPE” value was 1.

Regarding `C=CC(=O)Nc1cc(C)ccc1Nc1nc(Nc2cc(OC)ncc2C)ncc1C(F)(F)F` [MC-CC-90003, CC-90003], the “Duplicate of Duplicate of Hits: No CPE” value is listed as 1.

As to KIRA-7 [MC-KIRA-7], the “Duplicate of Duplicate of Hits: No CPE” value turned out to be 1.

As to `Cc1c(=O)n(C)c(Nc2ccc(I)cc2F)c2c(=O)n(C3CC3)c(=O)n(-c3cccc(N)c3)c12` [MC-GSK1790627, GSK1790627], the “Duplicate of Duplicate of Hits: No CPE” value was found to be 1.

In the case of `C=CC(=O)N1CCC[C@H](n2c(=O)n(-c3ccc(Oc4ccccc4)cc3)c3c(N)ncnc32)C1` [MC-ONO-4059 (analog), ONO-4059 (analog)], the “Duplicate of Duplicate of Hits: No CPE” value was determined as 1.

Take `Cc1nc2c(-c3cnc(N)nc3)nc(N3CCOCC3)nc2n1C(C)C` [NKIL-VS-5584 (SB2343), VS-5584]: the “Duplicate of Duplicate of Hits: No CPE” value stood at 1.

On to `CS[C@@]1(C(=O)Nc2ccc3[nH]nc(-c4ccc(OC(C)C)nc4)c3c2)CCN(CC(=O)N2CC=C(c3ccc(-c4ncn(C)n4)cc3)CC2)C1` [MC-MK-8353, MK-8353], for which the “Duplicate of Duplicate of Hits: No CPE” value was 1.

Regarding `COc1cc2ncnc(Nc3cccc(Br)c3)c2cc1OC` [MC-PD153035, PD153035], the “Duplicate of Duplicate of Hits: No CPE” value stood at 1.

As for `C=CC(=O)Nc1cc(Nc2nccc(-c3cn(C)c4ccccc34)n2)c(OC)cc1N(C)CCN(C)C` [NKIL-AZD9291, Osimertinib], the “Duplicate of Duplicate of Hits: No CPE” value amounted to 1.

Regarding `Cc1c[nH]c2nc(Nc3ccc(N4CCN(C)CC4)c(F)c3)nc(-c3cccc(CC#N)c3)c12` [NKIL-SGI-7079, SGI-7079], the “Duplicate of Duplicate of Hits: No CPE” value was 1.

Turning to `CN(C)C/C=C/C(=O)Nc1cc2c(Nc3ccc(Cl)c(Br)c3)ncnc2cn1` [MC-Tarlox-TKI, Tarlox-TKI], the “Duplicate of Duplicate of Hits: No CPE” value is 1.

As to JAK-IN-23 [MC-JAK-IN-23], the “Duplicate of Duplicate of Hits: No CPE” value came to 1.

As to `C=CC(=O)Nc1cccc(Oc2nc(Nc3ccc(N4CCN(C)CC4)c(F)c3)nc3[nH]ccc23)c1.O=C(O)/C=C\C(=O)O` [MC-Avitinib (maleate), Avitinib (maleate)], the “Duplicate of Duplicate of Hits: No CPE” value is 1.

For `COc1cc2ncnc(Nc3cccc(Br)c3)c2cc1OC.Cl` [LOPAC-PD153035 hydrochloride, PD153035 hydrochloride], the “Duplicate of Duplicate of Hits: No CPE” value amounted to 1.

With “Afatinib impurity 11 [MC-Afatinib impurity 11]”, the “Duplicate of Duplicate of Hits: No CPE” value is recorded as 1.

On to `C=CC(=O)Nc1cc(Nc2nccc(-c3cn(CC(F)(F)F)c4ccccc34)n2)c(OC)cc1N(C)CCN(C)C` [MC-Befotertinib, Befotertinib], for which the “Duplicate of Duplicate of Hits: No CPE” value is recorded as 1.

With `C=CC(=O)Nc1cccc(-n2c(=O)cc(C)c3cnc(Nc4ccc(OCCN(C)C)cc4OC)nc32)c1.O=C(O)C(F)(F)F` [MC-EGFR-IN-1 (TFA), EGFR-IN-1 (TFA)], the “Duplicate of Duplicate of Hits: No CPE” value came out at 1.

In the case of `C=CC(=O)Nc1cc(Nc2nccc(-c3cn(C4CC4)c4ccccc34)n2)c(OC)cc1N(C)CCN(C)C` [MC-Almonertinib, Almonertinib], the “Duplicate of Duplicate of Hits: No CPE” value amounted to 1.
